These are literature values, as cited in patent US7959947B2, “Film coating” (AstraZeneca AB, priority 2001, dated 2011).

The conditions of the series: 60° C.; according to data in Handbook of Pharmaceutical Excipients.

`CCCCCCCCCCCCCCCCCCOC(=O)/C=C/C(=O)[O-].[Na+]` [Sodium stearyl fumarate, sodium salt of 2-butenedioic monooctadecyl ester]: the Solubility in water is on record as 0.005 gram per gram water.
